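Values below derive from 48-hour exposures of cells grown in 96-well plates, with endpoints linearly interpolated between the two concentrations bracketing the appropriate inhibition level. Here, GI50 denotes the concentration required for 50% inhibition of growth.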 Calls of active or inactive are those of the source. Cut-off read from the data, not from the text of the source: active = GI50 up to about 1.1 µM and inactive = higher.
Tests used:
Test in all cases: DTP human tumour cell line panel, 48 h
786-0 = test system: 786-0
A498 = test system: A498
A549 = test system: A549
ACHN = test system: ACHN
BT-549 = test system: BT-549
CAKI-1 = test system: CAKI-1
CCRF-CEM = test system: CCRF-CEM
COLO 205 = test system: COLO 205
DU-145 = test system: DU-145
EKVX = test system: EKVX
HCC 2998 = test system: HCC 2998
HCT-116 = test system: HCT-116
HCT-15 = test system: HCT-15
HL-60 = test system: HL-60
HOP-62 = test system: HOP-62
HOP-92 = test system: HOP-92
HT-29 = test system: HT-29
Hs-578T = test system: Hs-578T
IGROV-1 = test system: IGROV-1
K562 = test system: K562
KM12 = test system: KM12
LOX IMVI = test system: LOX IMVI
M14 = test system: M14
MCF7 = test system: MCF7
MDA-MB-231 = test system: MDA-MB-231
MDA-MB-435 = test system: MDA-MB-435
MDA-N = test system: MDA-N
MOLT-4 = test system: MOLT-4
Malme-3M = test system: Malme-3M
NCI-H226 = test system: NCI-H226
NCI-H23 = test system: NCI-H23
NCI-H460 = test system: NCI-H460
NCI-H522 = test system: NCI-H522
NCI/ADR-RES = test system: NCI/ADR-RES
OVCAR-3 = test system: OVCAR-3
OVCAR-4 = test system: OVCAR-4
OVCAR-5 = test system: OVCAR-5
OVCAR-8 = test system: OVCAR-8
PC-3 = test system: PC-3
RPMI-8226 = test system: RPMI-8226
RXF 393 = test system: RXF 393
SF-268 = test system: SF-268
SF-295 = test system: SF-295
SF-539 = test system: SF-539
SK-MEL-28 = test system: SK-MEL-28
SK-MEL-2 = test system: SK-MEL-2
SK-MEL-5 = test system: SK-MEL-5
SK-OV-3 = test system: SK-OV-3
SN12C = test system: SN12C
SNB-19 = test system: SNB-19
SNB-75 = test system: SNB-75
SR = test system: SR
SW-620 = test system: SW-620
T47D = test system: T47D
TK-10 = test system: TK-10
U-251 = test system: U-251
UACC-257 = test system: UACC-257
UACC-62 = test system: UACC-62
UO-31 = test system: UO-31

COC(=O)C1CC23C=CCN4CC(C2C)C2(c5ccccc5NC12)C43 (stereo not given)
GI50 (786-0): > 100 µM (inactive)
GI50 (A498): > 100 µM (inactive)
GI50 (A549): > 100 µM (inactive)
GI50 (ACHN): > 100 µM (inactive)
GI50 (BT-549): > 100 µM (inactive)
GI50 (CAKI-1): > 100 µM (inactive)
GI50 (CCRF-CEM): > 100 µM (inactive)
GI50 (COLO 205): > 100 µM (inactive)
GI50 (DU-145): > 100 µM (inactive)
GI50 (EKVX): > 100 µM (inactive)
GI50 (HCC 2998): > 100 µM (inactive)
GI50 (HCT-116): > 100 µM (inactive)
GI50 (HCT-15): > 100 µM
GI50 (HL-60): 64 µM (inactive)
GI50 (HOP-62): > 100 µM (inactive)
GI50 (HOP-92): > 100 µM (inactive)
GI50 (HT-29): > 100 µM (inactive)
GI50 (Hs-578T): > 100 µM (inactive)
GI50 (IGROV-1): > 100 µM (inactive)
GI50 (K562): > 100 µM (inactive)
GI50 (KM12): > 100 µM (inactive)
GI50 (LOX IMVI): > 100 µM (inactive)
GI50 (M14): > 100 µM (inactive)
GI50 (MCF7): > 100 µM (inactive)
GI50 (MDA-MB-231): > 100 µM (inactive)
GI50 (MDA-MB-435): > 100 µM (inactive)
GI50 (MDA-N): > 100 µM (inactive)
GI50 (MOLT-4): > 100 µM (inactive)
GI50 (Malme-3M): > 100 µM (inactive)
GI50 (NCI-H226): > 100 µM (inactive)
GI50 (NCI-H23): > 100 µM (inactive)
GI50 (NCI-H460): > 100 µM (inactive)
GI50 (NCI-H522): > 100 µM (inactive)
GI50 (NCI/ADR-RES): > 100 µM (inactive)
GI50 (OVCAR-3): > 100 µM (inactive)
GI50 (OVCAR-4): > 100 µM (inactive)
GI50 (OVCAR-5): > 100 µM (inactive)
GI50 (OVCAR-8): > 100 µM (inactive)
GI50 (PC-3): > 100 µM (inactive)
GI50 (RPMI-8226): > 100 µM (inactive)
GI50 (RXF 393): > 100 µM (inactive)
GI50 (SF-268): > 100 µM (inactive)
GI50 (SF-295): > 100 µM (inactive)
GI50 (SF-539): > 100 µM (inactive)
GI50 (SK-MEL-28): > 100 µM (inactive)
GI50 (SK-MEL-2): > 100 µM (inactive)
GI50 (SK-MEL-5): > 100 µM (inactive)
GI50 (SK-OV-3): > 100 µM (inactive)
GI50 (SN12C): > 100 µM (inactive)
GI50 (SNB-19): > 100 µM (inactive)
GI50 (SNB-75): 87.7 µM (inactive)
GI50 (SR): > 100 µM (inactive)
GI50 (SW-620): > 100 µM (inactive)
GI50 (T47D): > 100 µM (inactive)
GI50 (TK-10): > 100 µM (inactive)
GI50 (U-251): > 100 µM (inactive)
GI50 (UACC-257): > 100 µM (inactive)
GI50 (UACC-62): > 100 µM (inactive)

CCOc1cc2c(cc1OC(C)=O)C(=O)CC[C@H]1C3CC[C@H](OC(C)=O)[C@@]3(C)CC[C@H]21 (stereo not given in full)
GI50 (786-0): > 100 µM (inactive)
GI50 (A498): > 100 µM (inactive)
GI50 (A549): > 100 µM (inactive)
GI50 (ACHN): > 100 µM (inactive)
GI50 (BT-549): > 100 µM (inactive)
GI50 (CAKI-1): > 100 µM (inactive)
GI50 (CCRF-CEM): > 100 µM (inactive)
GI50 (COLO 205): > 100 µM (inactive)
GI50 (DU-145): > 100 µM (inactive)
GI50 (EKVX): > 100 µM (inactive)
GI50 (HCC 2998): > 100 µM (inactive)
GI50 (HCT-116): > 100 µM (inactive)
GI50 (HCT-15): > 100 µM
GI50 (HL-60): > 100 µM (inactive)
GI50 (HOP-62): > 100 µM (inactive)
GI50 (HOP-92): > 100 µM (inactive)
GI50 (HT-29): > 100 µM (inactive)
GI50 (Hs-578T): > 100 µM (inactive)
GI50 (K562): > 100 µM (inactive)
GI50 (KM12): > 100 µM (inactive)
GI50 (LOX IMVI): > 100 µM (inactive)
GI50 (M14): > 100 µM (inactive)
GI50 (MCF7): > 100 µM (inactive)
GI50 (MDA-MB-231): > 100 µM (inactive)
GI50 (MDA-MB-435): > 100 µM (inactive)
GI50 (MDA-N): > 100 µM (inactive)
GI50 (MOLT-4): > 100 µM (inactive)
GI50 (Malme-3M): > 100 µM (inactive)
GI50 (NCI-H226): > 100 µM (inactive)
GI50 (NCI-H23): > 100 µM (inactive)
GI50 (NCI-H460): > 100 µM (inactive)
GI50 (NCI-H522): > 100 µM (inactive)
GI50 (NCI/ADR-RES): > 100 µM (inactive)
GI50 (OVCAR-3): > 100 µM (inactive)
GI50 (OVCAR-4): > 100 µM (inactive)
GI50 (OVCAR-5): > 100 µM (inactive)
GI50 (OVCAR-8): > 100 µM (inactive)
GI50 (PC-3): > 100 µM (inactive)
GI50 (RPMI-8226): > 100 µM (inactive)
GI50 (RXF 393): > 100 µM (inactive)
GI50 (SF-268): > 100 µM (inactive)
GI50 (SF-295): > 100 µM (inactive)
GI50 (SF-539): > 100 µM (inactive)
GI50 (SK-MEL-28): > 100 µM (inactive)
GI50 (SK-MEL-2): > 100 µM (inactive)
GI50 (SK-MEL-5): > 100 µM (inactive)
GI50 (SK-OV-3): > 100 µM (inactive)
GI50 (SNB-19): > 100 µM (inactive)
GI50 (SNB-75): > 100 µM (inactive)
GI50 (SR): > 100 µM (inactive)
GI50 (SW-620): > 100 µM (inactive)
GI50 (T47D): > 100 µM (inactive)
GI50 (TK-10): > 100 µM (inactive)
GI50 (U-251): > 100 µM (inactive)
GI50 (UACC-257): > 100 µM (inactive)
GI50 (UACC-62): > 100 µM (inactive)
GI50 (UO-31): > 100 µM (inactive)
